According to US12642857B2, “Degradation of AKT by conjugation of ATP-competitive AKT inhibitor GDC-0068 with E3 ligase ligands and methods of use” (DANA-FARBER CANCER INSTITUTE, INC., priority 2019, dated 2026):
Entries after “also recorded” stand apart in the source; their conditions may differ.

Assays:
AKT3 = molecular target: T1, AKT3 (Homo sapiens, UniProt Q9Y243); assay: Z'-LYTE assay (AKT binding assay), AKT3; settings: 10-point dose response, Km ATP, read-out: Biochemical Binding AKT3
T1 construct: purchased Life Technologies (Invitrogen)
Procedure: (§1) Z′-LYTE assays (catalog number PV3193, Invitrogen™) were conducted for AKT1, AKT2, AKT3, PKG1, S6K1, PKN1, βMSK2, and Haspin at Life Technologies™ in a 10-point dose response using Km ATP concentrations. LanthaScreen™ assays were conducted for RET (V804M) in a 10-point dose response at Life Technologies™.

AKT1 = molecular target: T2, AKT1 (Homo sapiens, UniProt P31749); assay: Z'-LYTE assay (AKT binding assay), AKT1; settings: 10-point dose response, Km ATP, read-out: Biochemical Binding AKT1
T2 construct: purchased Life Technologies (Invitrogen)
Procedure: as §1

AKT2 = molecular target: T3, AKT2 (Homo sapiens, UniProt P31751); assay: Z'-LYTE assay (AKT binding assay), AKT2; settings: 10-point dose response, Km ATP, read-out: Biochemical Binding AKT2
T3 construct: purchased Life Technologies (Invitrogen)
Procedure: as §1

AKT1, AKT2 and AKT3 [1] = assay: Immunoblot of AKT isoform degradation in MCF10A cells; format: cell-based, human; settings: 24-hour treatment
Procedure: (§2) MDA-MB-468 (human breast cancer cell line) cells were maintained in RPMI 1640 (Wisent Bioproducts) supplemented with 10% FBS (Thermo Fisher Scientific) and MCF10A (human breast epithelial cell line) cells were maintained in Dulbecco's modified Eagle's medium (DMEM)/Ham's F12 (Wisent Bioproducts) supplemented with 5% equine serum (Fisher), insulin (10 μg/ml) (Life Technologies), hydrocortisone (500 ng/ml) (Sigma-Aldrich®), epidermal growth factor (20 ng/ml) (R&D Systems), and cholera toxin (100 ng/ml) (List Biological Lab). MDA-MB-468 and MCF10A cells were seeded at 250,000 cells/mL and 200,000 cells/mL, respectively. The following day cells were treated with inventive bifunctional compounds. After 24 hours, cells were washed with phosphate-buffered saline at 4° C. and lysed in radioimmunoprecipitation assay (RIPA) buffer (150 mM Tris-HCl, 150 mM NaCl, 0.5% (w/v) sodium deoxycholate, 1% (v/v) NP-40, pH 7.5) containing 0.1% (w/v) sodium dodecyl sulfate, 1 mM sodium pyrophosphate, 20 mM sodium fluoride, 50 nM calyculin, and 0.5% (v/v) protease inhibitor cocktail (Sigma-Aldrich®)). Cell extracts were precleared by centrifugation at 14,000 rpm for 10 minutes at 4° C. The Bio-Rad DC protein assay was used to assess protein concentration, and sample concentration was normalized using SDS sample buffer. […] Images were stored and analyzed using ImageStudio™ (LI-COR®) software. […]

AKT1, AKT2 and AKT3 [2] = assay: Immunoblot of AKT isoform degradation in MDA-MB-468 cells; format: cell-based, human; settings: 24-hour treatment
Procedure: as §2

ZR-75-1 cells = assay: Growth inhibition rate (GR) assay in ZR-75-1 cells; format: cell-based; settings: 72-hour treatment (FIG. 6A)
Description: FIG. 6A-FIG. 6F are a set of graphs that show growth inhibition rate (GR) values across concentrations in ZR-75-1 (FIG. 6A), T47D (FIG. 6B), LNCaP (FIG. 6C), MCF-7 (FIG. 6D), MDA-MB-468 (FIG. 6E), and HCC1937 (FIG. 6F) cells after 72-hour treatment with GDC-0068 (blue), inventive bifunctional compound 10 (red), bifunctional compound 10-Me (negative control) (green), and lenalidomide (orange). Error bars represent the standard deviation of three technical replicates.

T2 sequence (P31749 whole entry): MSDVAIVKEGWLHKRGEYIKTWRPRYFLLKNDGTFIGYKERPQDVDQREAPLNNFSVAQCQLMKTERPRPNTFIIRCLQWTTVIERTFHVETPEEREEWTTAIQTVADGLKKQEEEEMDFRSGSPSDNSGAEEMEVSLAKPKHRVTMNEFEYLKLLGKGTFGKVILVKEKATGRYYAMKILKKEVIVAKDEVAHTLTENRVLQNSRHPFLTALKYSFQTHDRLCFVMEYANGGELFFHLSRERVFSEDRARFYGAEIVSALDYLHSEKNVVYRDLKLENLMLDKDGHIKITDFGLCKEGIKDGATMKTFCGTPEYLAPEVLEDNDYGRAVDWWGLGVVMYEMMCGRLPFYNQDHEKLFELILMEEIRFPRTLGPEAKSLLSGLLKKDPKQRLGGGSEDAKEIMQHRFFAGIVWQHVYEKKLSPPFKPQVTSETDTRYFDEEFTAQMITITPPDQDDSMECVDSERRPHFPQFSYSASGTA
T1 sequence (Q9Y243 whole entry): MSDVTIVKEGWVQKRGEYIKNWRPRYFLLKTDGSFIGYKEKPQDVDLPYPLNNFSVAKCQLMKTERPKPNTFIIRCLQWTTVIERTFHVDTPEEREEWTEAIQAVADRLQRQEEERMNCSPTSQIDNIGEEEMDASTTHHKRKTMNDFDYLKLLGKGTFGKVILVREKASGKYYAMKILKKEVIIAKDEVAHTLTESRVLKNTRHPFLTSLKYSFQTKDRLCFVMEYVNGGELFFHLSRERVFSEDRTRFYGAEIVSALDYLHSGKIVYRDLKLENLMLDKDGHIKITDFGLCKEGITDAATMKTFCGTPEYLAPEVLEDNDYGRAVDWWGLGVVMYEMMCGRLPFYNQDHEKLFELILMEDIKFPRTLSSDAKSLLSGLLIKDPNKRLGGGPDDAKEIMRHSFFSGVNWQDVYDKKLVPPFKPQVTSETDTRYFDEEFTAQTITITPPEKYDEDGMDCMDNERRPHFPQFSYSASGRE
T3 sequence (P31751 whole entry): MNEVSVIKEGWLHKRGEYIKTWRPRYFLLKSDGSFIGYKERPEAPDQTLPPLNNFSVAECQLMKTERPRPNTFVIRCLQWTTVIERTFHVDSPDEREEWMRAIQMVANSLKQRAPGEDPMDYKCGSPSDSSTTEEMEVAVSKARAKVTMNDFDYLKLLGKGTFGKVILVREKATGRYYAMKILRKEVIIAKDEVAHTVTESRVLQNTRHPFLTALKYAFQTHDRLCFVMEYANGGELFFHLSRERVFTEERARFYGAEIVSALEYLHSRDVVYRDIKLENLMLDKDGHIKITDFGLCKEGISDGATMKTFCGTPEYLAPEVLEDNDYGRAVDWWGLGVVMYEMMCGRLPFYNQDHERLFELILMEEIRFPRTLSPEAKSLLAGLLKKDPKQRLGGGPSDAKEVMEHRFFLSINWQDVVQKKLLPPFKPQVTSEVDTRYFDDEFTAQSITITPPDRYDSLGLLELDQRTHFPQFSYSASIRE

In the case of `C[C@@H]1C[C@@H](O)c2ncnc(N3CCN(C(=O)[C@H](CNCCCNC(=O)COc4cccc5c4C(=O)N(C4CCC(=O)NC4=O)C5=O)c4ccc(Cl)cc4)CC3)c21` (stereo partly drawn) [Compound 2, N-(3-(((S)-2-(4-chlorophenyl)-3-(4-((5R,7R)-7-hydroxy-5-methyl-6,7-dihydro-5H-cyclopenta[d]pyrimidin-4-yl)piperazin-1-yl)-3-oxopropyl)-amino)propyl)-2-((2-(2,6-dioxopiperidin-3-yl)-1,3-dioxoisoindolin-4-yl)oxy) acetamide], the IC50 (AKT3) is reported as 20.4 nM, the IC50 (AKT1) is reported as 3.93 nM and the IC50 (AKT2) is reported as 31.4 nM.
`Cc1ncsc1-c1ccc([C@H](C)NC(=O)[C@@H]2C[C@@H](O)CN2C(=O)[C@@H](NC(=O)CCOCCOCCNC[C@@H](C(=O)N2CCN(c3ncnc4c3[C@H](C)C[C@H]4O)CC2)c2ccc(Cl)cc2)C(C)(C)C)cc1` [Compound 6, (2S,4R)-1-((2S,15S)-2-(tert-butyl)-15-(4-chlorophenyl)-16-(4-((5R,7R)-7-hydroxy-5-methyl-6,7-dihydro-5H-cyclopenta[d]pyrimidin-4-yl)piperazin-1-yl)-4,16-dioxo-7,10-dioxa-3,13-diazahexadecanoyl)-4-hydroxy-N—((S)-1-(4-(4-methylthiazol-5-yl)phenyl)ethyl)pyrrolidine-2-carboxamide] gave an IC50 (AKT1) of 3.8 nM.
In the case of `Cc1ncsc1-c1ccc([C@H](C)NC(=O)[C@@H]2C[C@@H](O)CN2C(=O)[C@@H](NC(=O)CCOCCCNC[C@@H](C(=O)N2CCN(c3ncnc4c3[C@H](C)CC4)CC2)c2ccc(Cl)cc2)C(C)(C)C)cc1` [Compound 1, (2S,4R)-1-((S)-2-(3-(3-(((S)-2-(4-chlorophenyl)-3-(4-((R)-5-methyl-6,7-dihydro-5H-cyclopenta[d]pyrimidin-4-yl)piperazin-1-yl)-3-oxopropyl)amino)propoxy)propanamido)-3,3-dimethylbutanoyl)-4-hydroxy-N—((S)-1-(4-(4-methylthiazol-5-yl)phenyl)ethyl)pyrrolidine-2-carboxamide], the IC50 (AKT3) is reported as 4.94 nM, the “Degradation of AKT isoforms” value (AKT1, AKT2 and AKT3 [1]) is reported as “degraded in MCF10A cells in a dose-dependent manner” and the “Degradation of AKT isoforms” value (AKT1, AKT2 and AKT3 [2]) is reported as “degraded in MDA-MB-468 cells in a dose-dependent manner; also recorded: degraded in MDA-MB-468 cells (FIG. 3)”. It also gave an IC50 (AKT1) of 1.58 nM and an IC50 (AKT2) of 15.1 nM.
For `C[C@@H]1C[C@@H](O)c2ncnc(N3CCN(C(=O)[C@H](CNCCCCCCCCNC(=O)COc4cccc5c4C(=O)N(C4CCC(=O)NC4=O)C5=O)c4ccc(Cl)cc4)CC3)c21` (stereo partly drawn) [Compound 3, N-(8-(((S)-2-(4-chlorophenyl)-3-(4-((5R,7R)-7-hydroxy-5-methyl-6,7-dihydro-5H-cyclopenta[d]pyrimidin-4-yl)piperazin-1-yl)-3-oxopropyl)amino)octyl)-2-((2-(2,6-dioxopiperidin-3-yl)-1,3-dioxoisoindolin-4-yl)oxy)acetamide], the IC50 (AKT3) was 1.23 nM, the “Degradation of AKT isoforms” value (AKT1, AKT2 and AKT3 [1]) was “degraded in MCF10A cells in a dose-dependent manner” and the “Degradation of AKT isoforms” value (AKT1, AKT2 and AKT3 [2]) was “degraded in MDA-MB-468 cells in a dose-dependent manner; also recorded: degraded in MDA-MB-468 cells (FIG. 3)”. For the same compound, the IC50 (AKT1) was 1.03 nM and the IC50 (AKT2) was 4.04 nM.
Work on `C[C@@H]1C[C@@H](O)c2ncnc(N3CCN(C(=O)[C@H](CNCCCCCCCCC#Cc4cccc5c4CN(C4CCC(=O)NC4=O)C5=O)c4ccc(Cl)cc4)CC3)c21` (stereo partly drawn) [Compound 7, 3-(4-(10-(((S)-2-(4-chlorophenyl)-3-(4-((5R,7R)-7-hydroxy-5-methyl-6,7-dihydro-5H-cyclopenta[d]pyrimidin-4-yl)piperazin-1-yl)-3-oxopropyl)amino)dec-1-yn-1-yl)-1-oxoisoindolin-2-yl)piperidine-2,6-dione] yielded an IC50 (AKT1) of 2.46 nM.
For `C[C@@H]1C[C@@H](O)c2ncnc(N3CCN(C(=O)[C@H](CNCCOCCNC(=O)COc4cccc5c4C(=O)N(C4CCC(=O)NC4=O)C5=O)c4ccc(Cl)cc4)CC3)c21` (stereo partly drawn) [Compound 5, N-(2-(2-(((S)-2-(4-chlorophenyl)-3-(4-((5R,7R)-7-hydroxy-5-methyl-6,7-dihydro-5H-cyclopenta[d]pyrimidin-4-yl)piperazin-1-yl)-3-oxopropyl)amino)ethoxy)ethyl)-2-((2-(2,6-dioxopiperidin-3-yl)-1,3-dioxoisoindolin-4-yl)oxy)acetamide], the IC50 (AKT1) was 3.4 nM.
Compound `C[C@@H]1C[C@@H](O)c2ncnc(N3CCN(C(=O)[C@H](CNCCOCCOCCNC(=O)COc4cccc5c4C(=O)N(C4CCC(=O)NC4=O)C5=O)c4ccc(Cl)cc4)CC3)c21` (stereo partly drawn) [Compound 4, N-(2-(2-(2-(((S)-2-(4-chlorophenyl)-3-(4-((5R,7R)-7-hydroxy-5-methyl-6,7-dihydro-5H-cyclopenta[d]pyrimidin-4-yl)piperazin-1-yl)-3-oxopropyl)amino)ethoxy)ethoxy)ethyl)-2-((2-(2,6-dioxopiperidin-3-yl)-1,3-dioxoisoindolin-4-yl)oxy)acetamide] has an IC50 (AKT1) of 6.97 nM.
For `C[C@@H]1C[C@@H](O)c2ncnc(N3CCN(C(=O)[C@H](CNCCCCc4cccc5c4C(=O)N(C4CCC(=O)NC4=O)C5=O)c4ccc(Cl)cc4)CC3)c21` (stereo partly drawn) [Compound 9, 4-(4-(((S)-2-(4-chlorophenyl)-3-(4-((5R,7R)-7-hydroxy-5-methyl-6,7-dihydro-5H-cyclopenta[d]pyrimidin-4-yl)piperazin-1-yl)-3-oxopropyl)amino)butyl)-2-(2,6-dioxopiperidin-3-yl)isoindoline-1,3-dione], the IC50 (AKT1) was 1.8 nM.
With `C[C@@H]1C[C@@H](O)c2ncnc(N3CCN(C(=O)[C@H](CNCCCCCCCCCCc4cccc5c4CN(C4CCC(=O)N(C)C4=O)C5=O)c4ccc(Cl)cc4)CC3)c21` (stereo partly drawn) [Compound 10-Me, 3-(4-(10-(((S)-2-(4-chlorophenyl)-3-(4-((5R,7R)-7-hydroxy-5-methyl-6,7-dihydro-5H-cyclopenta[d]pyrimidin-4-yl)piperazin-1-yl)-3-oxopropyl)amino)decyl)-1-oxoisoindolin-2-yl)-1-methylpiperidine-2,6-dione] the “Anti-proliferative potency relative to compound 10” value (ZR-75-1 cells) was “significantly less potent” and the GR50 (ZR-75-1 cells; Homo sapiens, read-out: GR50) was 413 nM.
